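Compound exposure: 48 hours, 5 concentrations, 96-well plates. The concentration for full growth arrest is given as TGI.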
What was measured:
Assay in all cases: growth of human tumour cells (NCI), 48 h
NCI-H23 lung = system: NCI-H23 lung
SK-OV-3 ovarian = system: SK-OV-3 ovarian
OVCAR-4 ovarian = system: OVCAR-4 ovarian
BT-549 breast = system: BT-549 breast
MALME-3M melanoma = system: MALME-3M melanoma
LOX IMVI melanoma = system: LOX IMVI melanoma
MDA-N = system: MDA-N
SR leukemia = system: SR leukemia
SF-268 CNS = system: SF-268 CNS
UACC-62 melanoma = system: UACC-62 melanoma
EKVX NSCLC = system: EKVX NSCLC
SK-MEL-5 melanoma = system: SK-MEL-5 melanoma
UACC-257 melanoma = system: UACC-257 melanoma
M14 melanoma = system: M14 melanoma
SF-539 CNS = system: SF-539 CNS
KM12 colon = system: KM12 colon
HL-60(TB) leukemia = system: HL-60(TB) leukemia
MDA-MB-435 = system: MDA-MB-435
A498 renal = system: A498 renal

SMILES | TGI (NCI-H23 lung) | TGI (SK-OV-3 ovarian) | TGI (OVCAR-4 ovarian) | TGI (BT-549 breast) | TGI (MALME-3M melanoma) | TGI (LOX IMVI melanoma) | TGI (MDA-N) | TGI (SR leukemia) | TGI (SF-268 CNS) | TGI (UACC-62 melanoma) | TGI (EKVX NSCLC) | TGI (SK-MEL-5 melanoma) | TGI (UACC-257 melanoma) | TGI (M14 melanoma) | TGI (SF-539 CNS) | TGI (KM12 colon) | TGI (HL-60(TB) leukemia) | TGI (MDA-MB-435) | TGI (A498 renal)
N=C1/C(=C/c2ccco2)C(=O)N=C2SC=NN12 | > 100 µM | > 100 µM | > 100 µM | > 100 µM | > 100 µM | > 100 µM | > 100 µM | > 100 µM | > 100 µM | > 100 µM | > 100 µM | > 100 µM | > 100 µM | > 100 µM | > 100 µM | > 100 µM | > 100 µM | > 100 µM | 
O=C(O)COc1cc(-c2ccccc2F)nc2cc3c(cc12)OCO3 | > 100 µM | > 100 µM |  | > 100 µM | > 100 µM | > 100 µM | > 100 µM | > 100 µM | > 100 µM | > 100 µM | > 100 µM | > 100 µM | > 100 µM | > 100 µM | > 100 µM | > 100 µM |  | > 100 µM | 
Nc1cc(N2CCOCC2)nc(=O)n1-c1ccccc1 | > 100 µM | > 100 µM |  | > 100 µM |  | > 100 µM | > 100 µM | > 100 µM |  | > 100 µM | > 100 µM | > 100 µM | > 100 µM | > 100 µM | > 100 µM | > 100 µM | > 100 µM | > 100 µM | > 100 µM
S=C(Nc1ccc(Cl)cc1)c1ccc(CN2CCCCC2)s1 | 8.63 µM |  | 80.7 µM | 79.3 µM |  | 6.14 µM | 16.8 µM | 19.5 µM | > 100 µM | 21.7 µM | 35.1 µM | 15.1 µM | > 100 µM | 26.7 µM | > 100 µM | 56.8 µM | 6.97 µM | 67.6 µM | 29 µM
CCCCC1CCCCCCc2[nH]c(/C=C3\N=C(c4ccc[nH]4)C=C3OC)cc21 (stereo not drawn) | 1.28 µM | 7.37 µM | 4.23 µM | 1.29 µM | 0.689 µM |  | 1.35 µM |  | 2.13 µM | < 0.0177 µM | 1.73 µM | 0.107 µM | 2.73 µM |  | 1.13 µM | 4.91 µM | 0.0103 µM | 0.403 µM | 1.86 µM
O=C1CSC(c2c[nH]c3ccccc23)N1c1cccc([N+](=O)[O-])c1 (stereo not drawn) | > 100 µM | > 100 µM | > 100 µM | > 100 µM |  | > 100 µM | > 100 µM | > 100 µM | > 100 µM | > 100 µM | > 100 µM | > 100 µM | > 100 µM | > 100 µM | > 100 µM | > 100 µM | > 100 µM | > 100 µM | 
CC1(C)[C@H]2CC[C@](C)(C2)[C@]1(S)Cc1ccccn1 | > 100 µM | 93.6 µM |  | > 100 µM | > 100 µM | 36.8 µM | > 100 µM | 43.2 µM | > 100 µM | > 100 µM | > 100 µM | 64.3 µM | 72.7 µM | > 100 µM | > 100 µM | > 100 µM | 50.9 µM | 91.9 µM | > 100 µM
COc1ccc(OC)c2sc(N3C(=O)/C(=C/c4ccc(SC)cc4)N=C3c3ccccc3)nc12 |  | > 100 µM | 87.6 µM | 88 µM |  | 64.4 µM | 42.5 µM | 60.6 µM | 88.1 µM | > 100 µM | > 100 µM | 33.8 µM | > 100 µM | 46.1 µM | 58.7 µM | 52.5 µM | 64.9 µM | 37.6 µM | > 100 µM
O=C1C(=Cc2cccc(Cl)c2)N=C(c2ccccc2)N1n1c(-c2ccccc2)nc2ccccc2c1=O | 68.6 µM | > 100 µM | > 100 µM | > 100 µM | > 100 µM | > 100 µM | > 100 µM | > 100 µM | > 100 µM | 96.2 µM | > 100 µM | > 100 µM | > 100 µM | 54.5 µM | > 100 µM | > 100 µM | > 100 µM | > 100 µM | 
CCC(C#N)NCc1ccc(CNC(C#N)CC)cc1 (stereo not drawn) | > 100 µM | > 100 µM | > 100 µM | > 100 µM | > 100 µM | > 100 µM | > 100 µM |  | > 100 µM | > 100 µM | > 100 µM | > 100 µM | > 100 µM | > 100 µM | > 100 µM | > 100 µM | > 100 µM | > 100 µM | > 100 µM
Cn1cc(S(=O)(=O)NC(=O)Nc2ccc(Cl)cc2)c(=O)c2ccc(Cl)cc21 | > 100 µM | > 100 µM | > 100 µM | > 100 µM | > 100 µM | > 100 µM | > 100 µM | > 100 µM | > 100 µM | > 100 µM | > 100 µM | > 100 µM | > 100 µM | > 100 µM | > 100 µM | > 100 µM |  | > 100 µM | 

Source: PubChem BioAssay (NCI)
